Data as given in patent US20130143929A1, “FUNGICIDAL IMIDAZOLES” (EI DU PONT DE NEMOURS AND COMPANY, priority 2010, published 2013).
Marks after values point to notes of the source that are not given here.

Experiments:
Format in all cases: in vivo
[1] = system: Puccinia recondite f. sp. tritici (the causal agent of wheat leaf rust); test: Test A: wheat leaf rust, preventive spray on wheat seedlings, visual disease rating; settings: wheat leaf rust, preventive spray on wheat seedlings
Summary of the method: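 Wheat seedlings were sprayed to run-off with compound suspended in acetone/water containing 250 ppm Trem 014 (200 ppm ≈ 800 g/ha; some at 40 ppm). Puccinia recondite spores were inoculated the next day. Plants were held 24 h saturated at 20° C, then 7 days at 20° C, and disease control was rated visually on a 0–100 scale against controls.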

[2] = system: Septoria tritici (the causal agent of wheat leaf blotch); test: Test B: wheat leaf blotch, preventive spray on wheat seedlings, visual disease rating; settings: wheat leaf blotch, preventive spray on wheat seedlings
Summary of the method: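 Wheat seedlings sprayed to run-off with compound suspension (acetone/water with 250 ppm Trem 014; 200 ppm ≈ 800 g/ha, some at 40 ppm), inoculated next day with Septoria tritici spores. 48 h saturated humidity at 24 °C, then 19 days at 20 °C; visual rating, 100 = full control.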

[3] = system: Botrytis cinerea (the causal agent of tomato Botrytis); test: Test C: tomato Botrytis, preventive spray on tomato seedlings, visual disease rating; settings: tomato Botrytis, preventive spray on tomato seedlings
Summary of the method: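 Test suspension (acetone/water with 250 ppm Trem 014; 200 ppm equivalent to 800 g/ha) sprayed to run-off on tomato seedlings; B. cinerea spores inoculated next day. After 48 h saturated humidity at 20° C then 3 days at 24° C, disease rated visually as % control relative to untreated controls (0–100).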

[4] = system: Blumeria graminis f. sp. tritici (also known as Erysiphe graminis f. sp. tritici, the causal agent of wheat powdery mildew); test: Test D: wheat powdery mildew, preventive spray on wheat seedlings, visual disease rating; settings: wheat powdery mildew, preventive spray on wheat seedlings
Summary of the method: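 Compound suspended in acetone/water (50/50) with 250 ppm Trem 014 and sprayed to run-off on wheat seedlings (200 ppm ≈ 800 g/ha), then inoculated next day with spore dust. Disease rated visually after 8 days at 20 °C as % control relative to untreated plants (0-100).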

[5] = no asterisk (standard test suspension concentration, not 40 ppm)
[6] = asterisk: 40 ppm test suspension

Row | SMILES | Test A rating (100 = 100% disease control, 0 = no disease control relative to the controls) [1, 5] | Test B rating (100 = 100% disease control, 0 = no disease control relative to the controls) [2, 5] | Test C rating (100 = 100% disease control, 0 = no disease control relative to the controls) [3, 5] | Test D rating (100 = 100% disease control, 0 = no disease control relative to the controls) [4, 5] | Test A rating (100 = 100% disease control, 0 = no disease control relative to the controls) [1, 6] | Test B rating (100 = 100% disease control, 0 = no disease control relative to the controls) [2, 6] | Test C rating (100 = 100% disease control, 0 = no disease control relative to the controls) [3, 6] | Test D rating (100 = 100% disease control, 0 = no disease control relative to the controls) [4, 6]
1 | Cc1nc(Br)c(C(O)c2ccc(Cl)cc2Cl)n1-c1ccc(F)cc1F (racemic) [compound 259] | 99% | 100% | 0% | 0% |  |  |  | 
2 | COc1ccc(C(O)c2c(Cl)ncn2-c2c(F)cccc2F)c(Cl)c1 (racemic) [compound 260] | 100% | 100% | 100% | 96% |  |  |  | 
3 | COc1cc(F)c(C(O)c2c(Cl)nc(C)n2-c2ccc(F)cc2F)c(F)c1 (racemic) [compound 269] |  |  |  |  | 100* % | 96* % | 66* % | 0* %
4 | Cc1nc(Cl)c(C(O)c2ccc(Cl)cc2Cl)n1-c1ccc(F)cc1F (racemic) [compound 270] |  |  |  |  | 95* % | 69* % | 0* % | 0* %
5 | Cc1ncc(C(O)c2c(F)cc(Cl)cc2F)n1-c1ccc(F)cc1F (racemic) [compound 271] |  |  |  |  | 0* % | 17* % | 0* % | 0* %
6 | Cc1nc(Cl)c(C(O)c2ccc(F)cc2Br)n1-c1ccc(F)cc1Cl (racemic) [compound 272] |  |  |  |  | 100* % | 100* % | 93* % | 21* %
7 | Cc1nc(Cl)n(-c2c(F)cc(Cl)cc2F)c1C(O)c1ccc(F)cc1F (racemic) [compound 273] |  |  |  |  | 100* % | 100* % | 99* % | 0* %
8 | COc1ccc(C(O)c2c(Br)nc(C)n2-c2c(F)cccc2Cl)c(F)c1 (racemic) [compound 275] |  |  |  |  | 100* % | 100* % | 100* % | 99* %
9 | COc1ccc(C(O)c2c(Br)nc(C)n2-c2c(F)cccc2Cl)c(Cl)c1 (racemic) [compound 276] |  |  |  |  | 100* % | 100* % | 100* % | 100* %
10 | COc1ccc(C(O)c2c(Cl)nc(C)n2-c2c(F)cccc2Cl)c(F)c1 (racemic) [compound 277] |  |  |  |  | 100* % | 100* % | 100* % | 97* %
11 | COc1ccc(C(O)c2c(Cl)nc(C)n2-c2c(F)cccc2Cl)c(Cl)c1 (racemic) [compound 278] |  |  |  |  | 100* % | 100* % | 100* % | 97* %
12 | COc1cc(OC)cc(-n2c(C)nc(Br)c2C(O)c2c(F)cc(F)cc2F)c1 (racemic) [compound 279] |  |  |  |  | 0* % | 0* % | 0* % | 0* %
13 | COc1cc(F)ccc1C(O)c1c(Br)nc(C)n1-c1c(F)cccc1F (racemic) [compound 281] |  |  |  |  | 92* % | 0* % | 0* % | 0* %
14 | COc1ccc(C(O)c2cnc(C)n2-c2ccc(F)cc2F)c(Cl)c1 (racemic) [compound 282] |  |  |  |  | 92* % | 63* % | 0* % | 0* %
15 | COc1ccc(C(O)c2cnc(C)n2-c2ccc(F)cc2F)c(F)c1 (racemic) [compound 283] |  |  |  |  | 41* % | 0* % | 0* % | 0* %
16 | COc1ccc(C(O)c2c(Br)nc(C)n2-c2ccc(F)cc2F)c(F)c1 (racemic) [compound 284] |  |  |  |  | 100* % | 100* % | 41* % | 0* %
17 | COc1ccc(C(O)c2c(Br)nc(C)n2-c2ccc(F)cc2F)c(Cl)c1 (racemic) [compound 285] |  |  |  |  | 99* % | 88* % | 0* % | 0* %
18 | COc1ccc(C(O)c2c(Br)nc(Br)n2-c2c(F)cccc2F)c(Cl)c1 (racemic) [compound 286] |  |  |  |  | 100* % | 100* % | 100* % | 97* %
19 | Cc1nc(Br)n(-c2c(F)cc(Cl)cc2F)c1C(O)c1ccc(F)cc1F (racemic) [compound 299] |  |  |  |  | 100* % | 100* % | 100* % | 87* %
20 | COc1ccc(C(O)c2cnc(C)n2-c2ccc(F)cc2Cl)c(F)c1 (racemic) [compound 300] |  |  |  |  | 95* % | 95* % | 0* % | 0* %
